In patent EP4722201A1, “3-PHENYLISOXAZOLINE-5-CARBOXAMIDE COMPOUND, AND PREPARATION METHOD THEREFOR, HERBICIDAL COMPOSITION THEREOF AND USE THEREOF” (Jiangsu Flag Chemical Industry Co., Ltd, priority 2023, dated 2024):

Assays:
Assay in all cases: Indoor herbicide activity determination, Seed Treatment; pre-emergence (soil spray)
Type in all cases: in vivo
Alopecurus japonicus = system: Alopecurus japonicus
From the text: (§1) The testing method for herbicide activity of the compound of the present invention was as follows:
(§2) Seed Treatment; pre-emergence: quantitative seeds of gramineous weeds (Echinochloa crusgalli, Eleusine indica, Digitaria sanguinalis, Alopecurus japonicus, Beckmannia syzigachne, Leptochloa chinensis, Polypogon fugax, Alopecurus aequalis, Lolium multiflorum, Poa annua, Aegilops tauschii, Avena fatua, Alopecurus myosuroides, Alopecurus japonicus and Alopecurus aequalis), broad-leaved weeds (Eclipta prostrata, Amaranthus retroflexus, Rorippa indica, Malachium aquaticum, Veronica polita, Conyza canadensis, Sesbania cannabina, Sagittariatrifolia and Schoenoplectiella juncoides), and Cyperus iria were sown in plastic pots having a diameter of 7 cm and holes at the bottom and filled with nutrient soil (sandy soil, pH 6.1, organic matter 1%) respectively, the seeds were covered with an appropriate amount of soil after being sown, then the soil was wetted with water from the bottom, the seeds were cultured in a constant-temperature illuminated culture room for 24 h, and the soil was sprayed by using a 3WP-2000 traveling spray tower produced by the Nanjing Institute of Agricultural Mechanization of the Ministry of Agriculture, where a rotational speed of a main shaft was 96 mm/r, a spray height was 300 mm, an effective spraying range of a nozzle was 350 mm, a spray area was 0.35 m^2, and a flow rate at the nozzle was 390 mL/min.
(§3) Post-emergence: an appropriate quantity of seeds of gramineous weeds (Echinochloa crusgalli, Eleusine indica, Digitaria sanguinalis, Alopecurus japonicus, Beckmannia syzigachne, Leptochloa chinensis, Polypogon fugax, Alopecurus aequalis, Lolium multiflorum, Poa annua, Aegilops tauschii, Avena fatua, Alopecurus myosuroides, Alopecurus japonicus and Alopecurus aequalis), broad-leaved weeds (Eclipta prostrata, Amaranthus retroflexus, Rorippa indica, Malachium aquaticum, Veronica polita, Conyza canadensis, Sesbania cannabina, Sagittariatrifolia and Schoenoplectiella juncoides), and Cyperus iria were sown in plastic pots having a diameter of 7 cm and holes at the bottom and filled with nutrient soil (sandy soil, pH 6.1, organic matter 1%) respectively, the seeds were covered with an appropriate amount of soil after being sown, then the soil was wetted with water from the bottom, the seeds were cultured in a constant-temperature illuminated culture room until a 2-4 leaf stage, and stems and leaves underwent spray treatment. After the treatment, the test materials were placed in a laboratory and cultured in the constant-temperature illuminated culture room after the liquid was naturally dry in the shade, and results were determined 21 days later. Inhibition rate of fresh weight % = (1−(fresh weight of treated plants)/(fresh weight of control plants)) × 100% [formula]

Alopecurus myosuroides = system: Alopecurus myosuroides
From the text: as §1, §2, §3

Cyperus iria = settings: read-out: Herbicidal activities (inhibition rate) Cyperus iria; for inhibition at 120 g/ha: 120 g a.i./ha; for inhibition at 60 g/ha: 60 g a.i./ha
From the text: as §1, §2, §3

Digitaria sanguinalis = settings: read-out: Herbicidal activities (inhibition rate) Digitaria sanguinalis; for inhibition at 60 g/ha: 60 g a.i./ha
From the text: as §1, §2, §3

Eclipta prostrata = settings: read-out: Herbicidal activities (inhibition rate) Eclipta prostrata; for inhibition at 120 g/ha: 120 g a.i./ha; for inhibition at 60 g/ha: 60 g a.i./ha
From the text: as §1, §2, §3

Eleusine indica = system: Eleusine indica
From the text: as §1, §2, §3

Leptochloa chinensis = system: Leptochloa chinensis
From the text: as §1, §2, §3

Lolium multiflorum = system: Lolium multiflorum
From the text: as §1, §2, §3

Aegilops tauschii = settings: read-out: Herbicidal activities (inhibition rate) Aegilops tauschii
From the text: as §1, §2, §3

SMILES | Herbicidal activities, Alopecurus japonicus (inhibition rate class) (Alopecurus japonicus; Dosage 120 g a.i./ha) | Herbicidal activities, Alopecurus myosuroides (inhibition rate class) (Alopecurus myosuroides; Dosage 120 g a.i./ha) | inhibition at 60 g/ha (Cyperus iria) | inhibition at 60 g/ha (Eclipta prostrata) | Herbicidal activities, Eleusine indica (inhibition rate class) (Eleusine indica; Dosage 120 g a.i./ha) | Herbicidal activities, Leptochloa chinensis (inhibition rate class) (Leptochloa chinensis; Dosage 120 g a.i./ha) | Herbicidal activities, Lolium multiflorum (inhibition rate class) (Lolium multiflorum; Dosage 120 g a.i./ha) | inhibition at 60 g/ha (Digitaria sanguinalis) | further results
C=CC1(C(=O)N[C@H]2C[C@@H](C(=O)OC)C2)CC(c2cc(F)cc(F)c2)=NO1 (stereo partly shown) [I-3] |  |  |  |  |  |  |  |  | Herbicidal activities, Alopecurus japonicus (inhibition rate class) (Alopecurus japonicus; Dosage 240 g a.i./ha): A (A indicates that the inhibition rate was greater than or equal to 80% to 100%); Herbicidal activities, Alopecurus myosuroides (inhibition rate class) (Alopecurus myosuroides; Dosage 240 g a.i./ha): A (A indicates that the inhibition rate was greater than or equal to 80% to 100%); inhibition at 120 g/ha (Cyperus iria): 80 to 100%; inhibition at 120 g/ha (Digitaria sanguinalis; 120 g a.i./ha): 80 to 100%; inhibition at 120 g/ha (Eclipta prostrata): 80 to 100%; Herbicidal activities, Eleusine indica (inhibition rate class) (Eleusine indica; Dosage 240 g a.i./ha): A (A indicates that the inhibition rate was greater than or equal to 80% to 100%); Herbicidal activities, Leptochloa chinensis (inhibition rate class) (Leptochloa chinensis; Dosage 240 g a.i./ha): A (A indicates that the inhibition rate was greater than or equal to 80% to 100%); Herbicidal activities, Lolium multiflorum (inhibition rate class) (Lolium multiflorum; Dosage 240 g a.i./ha): A (A indicates that the inhibition rate was greater than or equal to 80% to 100%)
C=C[C@]1(C(=O)N[C@H]2C[C@@H](C(=O)NOC(C)C)C2)CC(c2cc(F)cc(Cl)c2)=NO1 [I-36] | A (A indicates that the inhibition rate was greater than or equal to 80% to 100%) | A (A indicates that the inhibition rate was greater than or equal to 80% to 100%) | 60 to 80% | 60 to 80% | A (A indicates that the inhibition rate was greater than or equal to 80% to 100%) | A (A indicates that the inhibition rate was greater than or equal to 80% to 100%) | B (B indicates that the inhibition rate was greater than or equal to 60% to less than 80%) |  | inhibition at 60 g/ha (Aegilops tauschii; 60 g a.i./ha): 60 to 80%
C=C[C@]1(C(=O)N[C@H]2C=C[C@@H](C(=O)O)C2)CC(c2cc(F)cc(C(F)(F)F)c2)=NO1 [I-426] | A (A indicates that the inhibition rate was greater than or equal to 80% to 100%) | A (A indicates that the inhibition rate was greater than or equal to 80% to 100%) | 80 to 100% | 60 to 80% | A (A indicates that the inhibition rate was greater than or equal to 80% to 100%) | A (A indicates that the inhibition rate was greater than or equal to 80% to 100%) | A (A indicates that the inhibition rate was greater than or equal to 80% to 100%) | 80 to 100% | 
C=C[C@]1(C(=O)N[C@H]2C=C[C@@H](C(=O)OC)C2)CC(c2cc(F)cc(C(F)(F)F)c2)=NO1 [I-428] | A (A indicates that the inhibition rate was greater than or equal to 80% to 100%) | A (A indicates that the inhibition rate was greater than or equal to 80% to 100%) | 80 to 100% | 60 to 80% | A (A indicates that the inhibition rate was greater than or equal to 80% to 100%) | A (A indicates that the inhibition rate was greater than or equal to 80% to 100%) | A (A indicates that the inhibition rate was greater than or equal to 80% to 100%) | 80 to 100% | 
C=C[C@]1(C(=O)N[C@H]2C=C[C@@H](C(=O)OCCCOC)C2)CC(c2cc(F)cc(C(F)(F)F)c2)=NO1 [I-436] | A (A indicates that the inhibition rate was greater than or equal to 80% to 100%) | A (A indicates that the inhibition rate was greater than or equal to 80% to 100%) | 60 to 80% | 60 to 80% | A (A indicates that the inhibition rate was greater than or equal to 80% to 100%) | A (A indicates that the inhibition rate was greater than or equal to 80% to 100%) | B (B indicates that the inhibition rate was greater than or equal to 60% to less than 80%) | 80 to 100% | 
C=C[C@]1(C(=O)N[C@H]2C=C[C@@H](C(=O)OCCC)C2)CC(c2cc(F)cc(C(F)(F)F)c2)=NO1 [I-437] | A (A indicates that the inhibition rate was greater than or equal to 80% to 100%) | A (A indicates that the inhibition rate was greater than or equal to 80% to 100%) | 80 to 100% | 60 to 80% | A (A indicates that the inhibition rate was greater than or equal to 80% to 100%) | A (A indicates that the inhibition rate was greater than or equal to 80% to 100%) | A (A indicates that the inhibition rate was greater than or equal to 80% to 100%) | 80 to 100% | 
C=C[C@]1(C(=O)N[C@H]2C=C[C@@H](C(=O)OCCOC)C2)CC(c2cc(F)cc(C(F)(F)F)c2)=NO1 [I-443] |  |  | 80 to 100% | 80 to 100% | A (A indicates that the inhibition rate was greater than or equal to 80% to 100%) | A (A indicates that the inhibition rate was greater than or equal to 80% to 100%) |  | 80 to 100% | 
COC(=O)[C@@H]1C=C[C@H](NC(=O)C2(C)CC(c3cc(F)cc(C(F)(F)F)c3)=NO2)C1 (stereo partly shown) [I-495] |  |  |  |  |  |  |  |  | inhibition at 120 g/ha (Aegilops tauschii; 120 g a.i./ha): 80 to 100%; Herbicidal activity (inhibition rate class), Alopecurus japonicus (Alopecurus japonicus; Dosage 240 g a.i./ha): A (A indicates that the inhibition rate was greater than or equal to 80% to 100%); Herbicidal activity (inhibition rate class), Alopecurus myosuroides (Alopecurus myosuroides; Dosage 240 g a.i./ha): A (A indicates that the inhibition rate was greater than or equal to 80% to 100%); inhibition at 120 g/ha (Cyperus iria): 80 to 100%; inhibition at 120 g/ha (Eclipta prostrata): 60 to 80%; Herbicidal activity (inhibition rate class), Eleusine indica (Eleusine indica; Dosage 240 g a.i./ha): A (A indicates that the inhibition rate was greater than or equal to 80% to 100%); Herbicidal activity (inhibition rate class), Leptochloa chinensis (Leptochloa chinensis; Dosage 240 g a.i./ha): A (A indicates that the inhibition rate was greater than or equal to 80% to 100%); Herbicidal activity (inhibition rate class), Lolium multiflorum (Lolium multiflorum; Dosage 240 g a.i./ha): A (A indicates that the inhibition rate was greater than or equal to 80% to 100%)
C[C@]1(C(=O)N[C@H]2C=C[C@@H](C(=O)OCCBr)C2)CC(c2cc(F)cc(C(F)(F)F)c2)=NO1 [I-501] |  |  | 60 to 80% | 60 to 80% |  |  |  | 80 to 100% | Herbicidal activity (inhibition rate class), Eleusine indica (Eleusine indica; Dosage 120 g a.i./ha): A (A indicates that the inhibition rate was greater than or equal to 80% to 100%); Herbicidal activity (inhibition rate class), Leptochloa chinensis (Leptochloa chinensis; Dosage 120 g a.i./ha): A (A indicates that the inhibition rate was greater than or equal to 80% to 100%)
COC(=O)[C@@H]1C=C[C@H](NC(=O)[C@@]2(C(F)(F)F)CC(c3cc(Cl)cc(C(F)(F)F)c3)=NO2)C1 [I-524] |  |  | 80 to 100% | 60 to 80% |  |  |  | 80 to 100% | Herbicidal activity (inhibition rate class), Alopecurus japonicus (Alopecurus japonicus; Dosage 120 g a.i./ha): A (A indicates that the inhibition rate was greater than or equal to 80% to 100%); Herbicidal activity (inhibition rate class), Alopecurus myosuroides (Alopecurus myosuroides; Dosage 120 g a.i./ha): B (B indicates that the inhibition rate was greater than or equal to 60% to less than 80%); Herbicidal activity (inhibition rate class), Eleusine indica (Eleusine indica; Dosage 120 g a.i./ha): A (A indicates that the inhibition rate was greater than or equal to 80% to 100%); Herbicidal activity (inhibition rate class), Leptochloa chinensis (Leptochloa chinensis; Dosage 120 g a.i./ha): A (A indicates that the inhibition rate was greater than or equal to 80% to 100%)
